In patent publication US11479611B2 (China Medical University Hospital, priority 2019, dated 2022):

Experiments:
Type in all cases: cell-based
[1] = system: human pancreatic cancer cell line AsPC1; experiment: tumor cell death (cytotoxicity), Annexin V-FITC/PI flow cytometry; conditions: treated alone; gemcitabine 20 μM or 1×10^5 parental cells
Description: (§1) The cells are subsequently incubated for 24 hours. Each type of the tumor cells is divided into six groups. In a control, the tumor cells are untreated. In a group 1, the tumor cells are treated with the chemotherapy drug. In a group 2, the tumor cells are treated with the parental primary NK cell. In a group 3, the tumor cells are treated with the parental primary NK cell and the chemotherapy drug. In the groups 2 and 3, the number of the parental primary NK cell treated is 1×10^5 cells. In a group 4, the tumor cells are treated with the Example 1. In a group 5, the tumor cells are treated with the Example 1 and the chemotherapy drug. […] The treated cells are stained with Annexin V-FITC and propidium iodide (PI), and the apoptosis and the death of the tumor cells are detected by the flow cytometry. The sum of the percentage of cells stained with Annexin V-FITC and/or PI (that is the percentage of cells in the first quadrant, the second quadrant, and the fourth quadrant of the bivariate flow cytometry scatter plot) are calculated to obtain the cytotoxicity. The results of the cytotoxicity are counted after the three independent trials in each group.
(§2) The cells are subsequently incubated for 24 hours. […] The treated cells are stained with Annexin V-FITC and propidium iodide (PI), and the apoptosis and the death of the tumor cells are detected by the flow cytometry. […]

[2] = system: human ovarian cancer cell line SKOV3; experiment: as above; conditions: treated alone; carboplatin 20 μM or 1×10^5 parental cells
Description: as §1, §2

[3] = system: HLA-G on the plasma membrane of the human ovarian cancer cell line SKOV3; experiment: HLA-G expression level of tumor cells by flow cytometry; conditions: 20 μM, 48 hours, compared to untreated control, p<0.001
[4] = system: HLA-G on the plasma membrane of the human breast cancer cell line MDA-MB-231; experiment: as above; conditions: 200 nM, 48 hours, compared to untreated control, p<0.001
Description: First, the human breast cancer cell line MDA-MB-231, the human malignant brain tumor cell line DBTRG, the human pancreatic cancer cell line AsPC1 and the human ovarian cancer cell line SKOV3 are seeded in a 6-well plate at a density of 2×10^5 cells/well. The cells are subsequently incubated for 24 hours. Each type of the tumor cells is divided into two groups. In a control, the tumor cells are untreated. In an experiment group, the tumor cells are treated with the chemotherapy drug for 48 hours. […] Then, the HLA-G expression level of the tumor cells are detected by flow cytometry.

[5] = system: human breast cancer cell line MDA-MB-231; experiment: tumor cell death (cytotoxicity), Annexin V-FITC/PI flow cytometry; conditions: treated alone; doxorubicin 200 nM or 1×10^5 parental cells
Description: (§3) The cells are subsequently incubated for 24 hours. […] In a control, the tumor cells are untreated.
as §3

Nc1ccn([C@@H]2O[C@H](CO)[C@@H](O)C2(F)F)c(=O)n1 [gemcitabine]
death rate of AsPC1 compared to the control (in words) [1]: increased, but there is no statistically significant difference compared to the control

N.N.O=C([O-])C1(C(=O)[O-])CCC1.[Pt+2] [carboplatin]
death rate of SKOV3 compared to the control (in words) [2]: increased, but there is no statistically significant differences compared to the control | expression of HLA-G on the plasma membrane of SKOV3 [3]: increase the expression of HLA-G

COc1cccc2c1C(=O)c1c(O)c3c(c(O)c1C2=O)C[C@@](O)(C(=O)CO)C[C@@H]3O[C@H]1C[C@H](N)[C@H](O)[C@H](C)O1 [doxorubicin]
expression of HLA-G on the plasma membrane of MDA-MB-231 [4]: increase the expression of HLA-G | death rate of MDA-MB-231 compared to the control (in words) [5]: increased, but there is no statistically significant difference compared to the control
